Measured values as given in patent publication US8507464B2, “Phosphoramidate alkylator prodrugs” (Threshold Pharmaceuticals, Inc., priority 2005, dated 2013).
Converted amounts (≈) assume the structure as drawn. Read-outs that look alike come from different tables or passages of the source.

Tests used:
[1] = Solubility in saline at room temperature; type: physicochemical; settings: saline or isotonic
[2] = logP (partitioning between octanol and water); type: physicochemical; settings: read-out: logP
Excerpt: As used herein “LogP” means a measure of lipophilicity of a substance determined based on the partitioning of the substance betwen octanol and water.

[3] = tested on: H460 cells; test: Cell cycle distribution (flow cytometry); type: cell-based, human
[4] = tested on: HT29 monolayer; test: Clonogenic survival of monolayer cells (Example 35); type: cell-based; settings: Homo sapiens
[5] = tested on: spheroids; test: Spheroid combination with cisplatin or daunorubicin, clonogenic survival; type: cell-based, human; settings: Homo sapiens, 2 h exposure
Protocol: The phosphoramidate alkylator prodrug was combined simultaneously with cisplatin or daunorubicin and the spreroids exposed for 2 h to the combination, followed by measurement of clonogenic survival.

[6] = tested on: human (HLM) liver microsomal proteins; test: Metabolic stability in liver microsomal protein; type: in vitro ADME; settings: Table 2A, second study, 5 μM
[7] = tested on: rat (RLM) liver microsomal proteins; test: Metabolic stability in liver microsomal protein; type: in vitro ADME; settings: 5 μM
[8] = In vivo plasma or tumor pharmacokinetics of Compound 25 (Table 4); set-up: species or system CD-1 mice (nude mice where noted)
[9] = target: CYP2C19 (printed CYPC219) (Homo sapiens, UniProt P33261); test: Cytochrome P450 inhibition; settings: pH 7.4, probe (S)-mephenyloin
Chain of CYP2C19 (printed CYPC219) (P33261 whole entry): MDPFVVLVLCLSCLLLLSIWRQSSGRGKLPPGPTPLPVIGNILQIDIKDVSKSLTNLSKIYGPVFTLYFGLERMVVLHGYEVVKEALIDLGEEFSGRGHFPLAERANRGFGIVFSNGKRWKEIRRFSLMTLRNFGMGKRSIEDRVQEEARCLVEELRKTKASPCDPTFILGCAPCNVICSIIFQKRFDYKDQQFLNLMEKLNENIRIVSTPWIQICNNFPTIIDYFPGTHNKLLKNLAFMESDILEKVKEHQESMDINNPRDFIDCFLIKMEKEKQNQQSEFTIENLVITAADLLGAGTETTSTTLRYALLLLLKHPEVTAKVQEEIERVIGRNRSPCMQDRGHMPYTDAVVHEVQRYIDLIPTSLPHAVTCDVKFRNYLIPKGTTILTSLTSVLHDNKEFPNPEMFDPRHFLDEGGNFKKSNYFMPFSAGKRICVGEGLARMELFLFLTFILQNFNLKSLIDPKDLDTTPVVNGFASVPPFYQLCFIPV
Protocol: (§1) A control reaction with no inhibitor was also prepared. After a suitable incubation at 37° C., the reactions were terminated by the addition of […] of 10% formic acid in water ([…] of acetonitrile for 2C19). […] Each assay was performed in duplicate.

[10] = target: CYP2C9 (Homo sapiens, UniProt P11712); test: Cytochrome P450 inhibition; settings: pH 7.4
Chain of CYP2C9 (P11712 whole entry): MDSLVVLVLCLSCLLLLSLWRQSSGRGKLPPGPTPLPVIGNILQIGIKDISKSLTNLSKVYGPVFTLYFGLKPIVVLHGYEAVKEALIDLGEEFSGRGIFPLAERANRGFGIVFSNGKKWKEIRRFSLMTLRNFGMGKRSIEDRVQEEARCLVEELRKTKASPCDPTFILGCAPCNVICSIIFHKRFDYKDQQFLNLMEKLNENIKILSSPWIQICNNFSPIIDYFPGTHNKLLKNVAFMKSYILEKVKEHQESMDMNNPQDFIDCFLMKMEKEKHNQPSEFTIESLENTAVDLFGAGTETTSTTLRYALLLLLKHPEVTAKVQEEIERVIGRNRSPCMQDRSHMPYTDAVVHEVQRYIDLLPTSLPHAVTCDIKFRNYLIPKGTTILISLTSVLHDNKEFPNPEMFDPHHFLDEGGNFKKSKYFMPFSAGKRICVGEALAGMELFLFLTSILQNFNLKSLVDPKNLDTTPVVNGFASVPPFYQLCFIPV
Protocol: as §1

[11] = target: CYP1A2 (Homo sapiens, UniProt P05177); test: in vitro; settings: pH 7.4, probe phenacetin
Chain of CYP1A2 (P05177 whole entry, species assumed): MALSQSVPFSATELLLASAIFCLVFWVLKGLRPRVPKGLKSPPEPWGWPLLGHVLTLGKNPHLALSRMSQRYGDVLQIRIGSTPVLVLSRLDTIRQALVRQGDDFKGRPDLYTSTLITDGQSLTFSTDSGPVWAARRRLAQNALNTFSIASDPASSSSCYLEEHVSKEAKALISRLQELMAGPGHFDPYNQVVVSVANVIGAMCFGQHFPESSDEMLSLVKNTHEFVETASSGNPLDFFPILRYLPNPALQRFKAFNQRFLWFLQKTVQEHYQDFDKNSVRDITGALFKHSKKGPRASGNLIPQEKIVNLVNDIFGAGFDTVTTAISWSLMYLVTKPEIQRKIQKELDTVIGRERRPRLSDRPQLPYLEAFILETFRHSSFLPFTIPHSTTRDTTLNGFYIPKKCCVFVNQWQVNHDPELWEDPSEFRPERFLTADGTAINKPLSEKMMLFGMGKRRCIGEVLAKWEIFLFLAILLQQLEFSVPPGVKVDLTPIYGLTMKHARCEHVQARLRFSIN
Protocol: as §1

[12] = target: CYP2D6 (Homo sapiens, UniProt P10635); test: in vitro; settings: pH 7.4, probe dextromethorphan
Chain of CYP2D6 (P10635 whole entry): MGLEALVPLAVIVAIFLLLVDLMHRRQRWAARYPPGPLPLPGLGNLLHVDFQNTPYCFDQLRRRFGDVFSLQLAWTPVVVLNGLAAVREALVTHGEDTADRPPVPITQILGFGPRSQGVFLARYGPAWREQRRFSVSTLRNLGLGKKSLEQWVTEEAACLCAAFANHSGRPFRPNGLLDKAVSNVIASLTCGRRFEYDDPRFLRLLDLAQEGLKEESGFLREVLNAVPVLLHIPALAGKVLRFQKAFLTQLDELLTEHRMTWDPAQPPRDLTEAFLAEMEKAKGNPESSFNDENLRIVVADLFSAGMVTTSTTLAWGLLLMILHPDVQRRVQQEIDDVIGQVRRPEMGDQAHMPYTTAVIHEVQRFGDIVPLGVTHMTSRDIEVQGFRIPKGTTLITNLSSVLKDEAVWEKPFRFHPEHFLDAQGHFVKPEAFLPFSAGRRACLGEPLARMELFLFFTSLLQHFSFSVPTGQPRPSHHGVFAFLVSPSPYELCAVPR
Protocol: as §1

[13] = target: CYP3A4 (Homo sapiens, UniProt P08684); test: in vitro
Chain of CYP3A4 (P08684 whole entry): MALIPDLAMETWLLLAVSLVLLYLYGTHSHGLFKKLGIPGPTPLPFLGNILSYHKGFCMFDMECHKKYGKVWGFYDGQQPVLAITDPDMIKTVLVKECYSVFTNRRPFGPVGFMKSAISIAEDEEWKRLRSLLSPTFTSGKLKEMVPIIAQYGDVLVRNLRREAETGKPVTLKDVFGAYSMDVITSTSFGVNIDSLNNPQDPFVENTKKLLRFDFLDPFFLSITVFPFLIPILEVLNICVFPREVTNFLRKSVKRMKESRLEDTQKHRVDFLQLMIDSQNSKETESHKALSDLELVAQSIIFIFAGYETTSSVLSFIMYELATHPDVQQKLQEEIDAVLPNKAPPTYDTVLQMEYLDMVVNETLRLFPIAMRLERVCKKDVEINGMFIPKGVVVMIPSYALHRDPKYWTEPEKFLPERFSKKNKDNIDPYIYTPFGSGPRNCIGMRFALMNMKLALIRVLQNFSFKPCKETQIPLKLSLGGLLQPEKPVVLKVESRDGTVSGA
Protocol: as §1

[14] = tested on: H460 xenograft; test: H460 xenograft in nude mice, ip bolus or ip infusion with Cisplatin (Example 54); type: in vivo, mouse; settings: alone or in combination with CDDP
Protocol: Example 54 describes efficacy of Compound 25 via an ip bolus injection or ip infusion alone or in combination with Cisplatin in the H460 xenograft mouse model. Female Nu-Foxn1^nu homozygous nu/nu mice (purchased from Charles River, Cambridge, Mass.), 6 weeks of age, were allowed to acclimatize for at least three days, and handled under pathogen-free conditions. Human H460 cells were obtained from the American Type Culture Collection. The cell lines were cultured and harvested as described in Example 47 and inoculated at 3×10^6 cells/animal in the peritoneal subcutaneous space. When the tumors grew to an average volume of 100 mm^3 (day 8), each group of mice (ten per group) was administered, for three weeks, as tabulated in the table below: Compound 25 (formulated as a 15 mg/ml saline solution, administration route—i.p., administrated 2 h before CDDP on the days the combination therapy is scheduled) and CDDP in saline, IV.
The body weight and tumor volume was determined as described in Example 47.

[15] = tested on: PC3 cells; test: Clonogenic assay - oxygen dependence; settings: Homo sapiens
[16] = tested on: UV41; test: Clonogenic survival - DNA mutant repair cells; settings: Cricetulus griseus
[17] = 50 mg/kg i.v., 30% PEG/70% Saline, CD-1 mice
[18] = CD-1, mouse, plasma, ip, 25 mg/kg, 25 mg/kg i.p., 10% PEG, CD-1 mice
[19] = CD-1, mouse, plasma, ip, 50 mg/kg, 50 mg/kg i.p., Saline, CD-1 mice
[20] = CD-1, mouse, plasma, iv, 50 mg/kg, 50 mg/kg i.v., 30% PEG/70% Saline, CD-1 mice
[21] = CD-1, mouse, plasma, po, 50 mg/kg, 50 mg/kg p.o., Saline, CD-1 mice
[22] = CD-1, mouse, plasma, po, 100 mg/kg, 100 mg/kg p.o., Saline, CD-1 mice
[23] = nude, mouse, plasma, ip, 150 mg/kg, 150 mg/kg i.p., Saline, nude mice with H460 tumor
[24] = nude, mouse, tumor, ip, 150 mg/kg, 150 mg/kg i.p., Saline, nude mice with H460 tumor, Tumor PK

Cn1c(COP(=O)(NCCBr)NCCBr)cnc1[N+](=O)[O-] [Compound 25]
solubility [1]: 15 mg/mL (≈ 33.4 mM)
logP [2]: < 0
Cell cycle G0/G1 ([3]; 0.005 μM, Air): 38
Cell cycle G2/M ([3]; 0.005 μM, Air): 42
Cell cycle S ([3]; 0.005 μM, Air): 18
Cell cycle G0/G1 ([3]; 0.005 μM, Nitrogen): 50
Cell cycle G2/M ([3]; 0.005 μM, Nitrogen): 38
Cell cycle S ([3]; 0.005 μM, Nitrogen): 12
Cell cycle G0/G1 ([3]; 0.05 μM, Air): 58
Cell cycle G2/M ([3]; 0.05 μM, Air): 28
Cell cycle S ([3]; 0.05 μM, Air): 11
Cell cycle G0/G1 ([3]; 0.05 μM, Nitrogen): 30
Cell cycle G2/M ([3]; 0.05 μM, Nitrogen): 59
Cell cycle S ([3]; 0.05 μM, Nitrogen): 7
Cell cycle G0/G1 ([3]; 0.5 μM, Air): 58
Cell cycle G2/M ([3]; 0.5 μM, Air): 28
Cell cycle S ([3]; 0.5 μM, Air): 11
Cell cycle G0/G1 ([3]; 0.5 μM, Nitrogen): 23
Cell cycle G2/M ([3]; 0.5 μM, Nitrogen): 40
Cell cycle S ([3]; 0.5 μM, Nitrogen): 31
Cell cycle G0/G1 ([3]; 5 μM, Air): 42
Cell cycle G2/M ([3]; 5 μM, Air): 59
Cell cycle S ([3]; 5 μM, Air): 6
Cell cycle G0/G1 ([3]; 5 μM, Nitrogen): 47
Cell cycle G2/M ([3]; 5 μM, Nitrogen): 17
Cell cycle S ([3]; 5 μM, Nitrogen): 15
Cell cycle G0/G1 ([3]; 50 μM, Air): 14
Cell cycle G2/M ([3]; 50 μM, Air): 65
Cell cycle S ([3]; 50 μM, Air): 19
Cell cycle G0/G1 ([3]; 50 μM, Nitrogen): 33
Cell cycle G2/M ([3]; 50 μM, Nitrogen): 11
Cell cycle S ([3]; 50 μM, Nitrogen): 14
IC90 ([4]; HT-29, read-out: IC90 HT29 Monolayer 0.6% O2): 3 µM
IC90 ([4]; HT-29, read-out: IC90 HT29 Monolayer Air): 40 µM
IC90 ([4]; HT-29, read-out: IC90 HT29 Monolayer N2): 0.2 µM
IC50 ([5]; read-out: IC50 (μM), spheroids, cisplatin combination experiment): 12 µM
IC50 ([5]; read-out: IC50 (μM), spheroids, daunorubicin combination experiment): 9 µM
Metabolic stability (% at 30 min) HLM [6]: 127%
Metabolic stability (% at 30 min) RLM ([7]; Table 1, first study): 84%
Metabolic stability (% at 30 min) RLM ([7]; Table 2A, second study): 137%
AUC [8, 17]: 177 µg·h/mL
half-life [8, 17]: 10.1 min
Cmax [8, 18]: 6330 ng/mL
Tmax [8, 18]: 45 min
AUC ([8]; CD-1, mouse, plasma, ip, 25 mg/kg, 25 mg/kg i.p., 10% PEG, CD-1 mice, read-out: AUC): 247 µg·h/mL
half-life ([8]; CD-1, mouse, plasma, ip, 25 mg/kg, 25 mg/kg i.p., 10% PEG, CD-1 mice, read-out: Half-life): 4.43 min
AUC ([8]; CD-1, mouse, plasma, ip, 50 mg/kg, 50 mg/kg i.p., 30% PEG/70% Saline, CD-1 mice, read-out: AUC): 438 µg·h/mL
half-life ([8]; CD-1, mouse, plasma, ip, 50 mg/kg, 50 mg/kg i.p., 30% PEG/70% Saline, CD-1 mice, read-out: Half-life): 11 min
Cmax [8, 19]: 38500 ng/mL
Tmax [8, 19]: 5 min
AUC ([8]; CD-1, mouse, plasma, ip, 50 mg/kg, 50 mg/kg i.p., Saline, CD-1 mice, read-out: AUC): 635 µg·h/mL
half-life ([8]; CD-1, mouse, plasma, ip, 50 mg/kg, 50 mg/kg i.p., Saline, CD-1 mice, read-out: Half-life): 7.91 min
Cmax [8, 20]: 27500 ng/mL
Tmax [8, 20]: 2 min
AUC ([8]; CD-1, mouse, plasma, iv, 50 mg/kg, 50 mg/kg i.v., 30% PEG/70% Saline, CD-1 mice, read-out: AUC): 325 µg·h/mL
half-life ([8]; CD-1, mouse, plasma, iv, 50 mg/kg, 50 mg/kg i.v., 30% PEG/70% Saline, CD-1 mice, read-out: Half-life): 6.7 min
Cmax [8, 21]: 930 ng/mL
Tmax [8, 21]: 15 min
AUC ([8]; CD-1, mouse, plasma, po, 50 mg/kg, 50 mg/kg p.o., Saline, CD-1 mice, read-out: AUC): 40.4 µg·h/mL
half-life ([8]; CD-1, mouse, plasma, po, 50 mg/kg, 50 mg/kg p.o., Saline, CD-1 mice, read-out: Half-life): 25.7 min
Cmax [8, 22]: 15800 ng/mL
Tmax [8, 22]: 15 min
AUC ([8]; CD-1, mouse, plasma, po, 100 mg/kg, 100 mg/kg p.o., Saline, CD-1 mice, read-out: AUC): 784 µg·h/mL
half-life ([8]; CD-1, mouse, plasma, po, 100 mg/kg, 100 mg/kg p.o., Saline, CD-1 mice, read-out: Half-life): 95.2 min
bioavailability ([8]; mouse, plasma, po, 50 mg/kg p.o., Saline, CD-1 mice, read-out: F (Bioavailability)): 13.6%
Cmax [8, 23]: 90100 ng/mL
Tmax [8, 23]: 5 min
AUC ([8]; nude, mouse, plasma, ip, 150 mg/kg, 150 mg/kg i.p., Saline, nude mice with H460 tumor, plasma, read-out: AUC): 1240 µg·h/mL
half-life ([8]; nude, mouse, plasma, ip, 150 mg/kg, 150 mg/kg i.p., Saline, nude mice with H460 tumor, plasma, read-out: Half-life): 58.7 min
Cmax [8, 24]: 3380 ng/mL
Tmax [8, 24]: 15 min
AUC ([8]; nude, mouse, tumor, ip, 150 mg/kg, 150 mg/kg i.p., Saline, nude mice with H460 tumor, Tumor PK, read-out: AUC): 307 µg·h/mL
IC50 [9]: > 50 µM
IC50 [10]: ~10 µM
IC50 [11]: > 50 µM
IC50 [12]: > 50 µM
IC50 ([13]; pH 7.4, IC50 3A4 Midazolam, probe substrate midazolam): > 50 µM
IC50 ([13]; pH 7.4, IC50 3A4 Nifedipine, probe substrate nifedipine): > 50 µM
IC50 ([13]; pH 7.4, IC50 3A4 Testosterone, probe substrate testosterone): > 50 µM
efficacy of continuous application [14]: efficacious
IC90 ([15]; PC-3, read-out: IC90 PC3 Air): 50 µM
IC90 ([15]; PC-3, read-out: IC90 PC3 N2): 0.3 µM
IC90 ([16]; read-out: IC90 UV41 Air): 17 µM
IC90 ([16]; read-out: IC90 UV41 N2): 0.02 µM
